ChEMBL document CHEMBL5608163, “Structure modification of anoplin for fighting resistant bacteria” (Eur J Med Chem, 2024)
In brackets after ≈: the same amount, converted by molar mass. Bridge positions count the residues as written; N and C are the ends. Square brackets hold non-standard residues; d marks the D form. Peptide text beside a SMILES is read from it. S5 = C=CCCC[C@](C)(N)C(=O)O

Legend:
[1] = Hemolytic activity in human RBC assessed as hemolysis; type: toxicity, cell-based, Erythrocyte; settings: red blood cells
Staphylococcus aureus [2] = assay: Antibacterial activity against Staphylococcus aureus ATCC 29213 assessed as bacterial growth inhibition measured after 18 hrs by CLSI protocol based two-fold serial microdilution method; type: functional
Escherichia coli [3] = assay: Antibacterial activity against Escherichia coli ATCC 25922 assessed as reduction in bacterial growth; type: functional
Enterococcus faecium [4] = assay: Antibacterial activity against Enterococcus faecium ATCC 27270; type: functional
Pseudomonas aeruginosa [5] = assay: Antibacterial activity against Pseudomonas aeruginosa assessed as reduction in bacterial growth by broth microdilution method; type: functional
Staphylococcus aureus [6] = assay: Antibacterial activity against Staphylococcus aureus; type: functional
Escherichia coli [7] = assay: Antibacterial activity against Escherichia coli; type: functional
Staphylococcus aureus [8] = assay: Antibacterial activity against Staphylococcus aureus ATCC 25923 assessed as reduction in bacterial growth measured after 18 to 24 hrs by CLSI protocol-based Mueller-Hinton broth dilution method; type: functional; settings: time 18-24 hrs
Bacillus subtilis [9] = assay: Antibacterial activity against Bacillus subtilis ATCC 23857 assessed as reduction in bacterial growth measured after 18 to 24 hrs by CLSI protocol-based Mueller-Hinton broth dilution method; type: functional; settings: time 18-24 hrs
Escherichia coli [10] = assay: Antibacterial activity against multi-drug resistant Escherichia coli clinical isolate 850 assessed as reduction in bacterial growth measured after 18 to 24 hrs by CLSI protocol-based Mueller-Hinton broth dilution method; type: functional; settings: time 18-24 hrs
Pseudomonas aeruginosa [11] = assay: Antibacterial activity against multi-drug resistant Pseudomonas aeruginosa clinical isolate 119 assessed as reduction in bacterial growth measured after 18 to 24 hrs by CLSI protocol-based Mueller-Hinton broth dilution method; type: functional; settings: time 18-24 hrs
Klebsiella pneumoniae [12] = assay: Antibacterial activity against Klebsiella pneumoniae ATCC 700603 assessed as reduction in bacterial growth measured after 18 to 24 hrs by CLSI protocol-based Mueller-Hinton broth dilution method; type: functional; settings: time 18-24 hrs
Acinetobacter baumannii [13] = assay: Antibacterial activity against multi-drug resistant Acinetobacter baumannii clinical isolate 9840 assessed as reduction in bacterial growth measured after 18 to 24 hrs by CLSI protocol-based Mueller-Hinton broth dilution method; type: functional; settings: time 18-24 hrs
Staphylococcus aureus [14] = assay: Antibacterial activity against Staphylococcus aureus ATCC 25923 assessed as bacterial growth inhibition measured for 18 hrs by CLSI-protocol based Mueller-Hinton Broth micro-dilution assay; type: functional
Staphylococcus aureus [15] = assay: Antibacterial activity against Methicillin-resistant Staphylococcus aureus 936 assessed as bacterial growth inhibition measured for 18 hrs by CLSI-protocol based Mueller-Hinton Broth micro-dilution assay; type: functional
Staphylococcus aureus [16] = assay: Antibacterial activity against Staphylococcus aureus ATCC 29213 assessed as bacterial growth inhibition measured for 18 hrs by CLSI-protocol based Mueller-Hinton Broth micro-dilution assay; type: functional
Staphylococcus aureus [17] = assay: Antibacterial activity against methicillin-resistant Staphylococcus aureus ATCC BAA1720 assessed as bacterial growth inhibition measured for 18 hrs by CLSI-protocol based Mueller-Hinton Broth micro-dilution assay; type: functional
Bacillus subtilis [18] = assay: Antibacterial activity against Bacillus subtilis 168 assessed as bacterial growth inhibition measured for 18 hrs by CLSI-protocol based Mueller-Hinton Broth micro-dilution assay; type: functional
Escherichia coli [19] = assay: Antibacterial activity against Escherichia coli K12 assessed as bacterial growth inhibition measured for 18 hrs by CLSI-protocol based Mueller-Hinton Broth micro-dilution assay; type: functional
Escherichia coli [20] = assay: Antibacterial activity against Escherichia coli MG1655 assessed as bacterial growth inhibition measured for 18 hrs by CLSI-protocol based Mueller-Hinton Broth micro-dilution assay; type: functional
Pseudomonas aeruginosa [21] = assay: Antibacterial activity against Pseudomonas aeruginosa PAO1 assessed as bacterial growth inhibition measured for 18 hrs by CLSI-protocol based Mueller-Hinton Broth micro-dilution assay; type: functional
Pseudomonas aeruginosa [22] = assay: Antibacterial activity against Pseudomonas aeruginosa ATCC 27853 assessed as bacterial growth inhibition measured for 18 hrs by CLSI-protocol based Mueller-Hinton Broth micro-dilution assay; type: functional
Salmonella typhimurium = assay: Antibacterial activity against Salmonella enterica subsp. enterica serovar Typhimurium LT2 assessed as bacterial growth inhibition measured for 18 hrs by CLSI-protocol based Mueller-Hinton Broth micro-dilution assay; type: functional
Erythrocyte = assay: Hemolytic activity in sheep RBC incubated for 30 mins; type: toxicity, cell-based, Ovis aries; settings: 0.5 h
Staphylococcus aureus [23] = assay: Antibacterial activity against Staphylococcus aureus ATCC 25923 assessed as reduction in bacterial growth incubated for 18 to 24 hrs by broth microdilution method; type: functional; settings: time 18-24 hrs
Bacillus subtilis [24] = assay: Antibacterial activity against Bacillus subtilis assessed as reduction in microbial growth; type: functional
Enterococcus faecalis = assay: Antibacterial activity against Enterococcus faecalis assessed as reduction in microbial growth; type: functional
[25] = system: Staphylococcus epidermidis; assay: Antibacterial activity against Staphylococcus epidermidis assessed as reduction in microbial growth; type: functional
Escherichia coli [26] = assay: Antibacterial activity against Escherichia coli ATCC 25922 assessed as reduction in bacterial growth by broth microdilution method; type: functional
Pseudomonas aeruginosa [27] = assay: Antibacterial activity against Pseudomonas aeruginosa ATCC 15442 assessed as growth inhibition; type: functional
Klebsiella pneumoniae [28] = assay: Antibacterial activity against Klebsiella pneumoniae; type: functional
Acinetobacter baumannii [29] = assay: Antibacterial activity against Acinetobacter baumannii assessed as bacterial growth inhibition; type: functional
[30] = Hemolytic activity in human RBC; type: toxicity, cell-based, Erythrocyte; settings: red blood cells
Enterococcus faecium [31] = assay: Antibacterial activity against Enterococcus faecium; type: functional
Pseudomonas aeruginosa [32] = assay: Antibacterial activity against Pseudomonas aeruginosa ATCC 15442 assessed as reduction in bacterial cell growth incubated for 18 hrs by two fold serial microdilution method; type: functional

With CC[C@H](C)[C@H](NC(=O)[C@H](Cc1c[nH]c2ccccc12)NC(=O)[C@H](CCCCN)NC(=O)[C@H](CC(C)C)NC(=O)[C@H](CC(C)C)NC(=O)CN)C(=O)N[C@@H](CCCCN)C(=O)N[C@H](C(=O)N[C@@H](CC(C)C)C(=O)N[C@@H](CC(C)C)C(N)=O)[C@@H](C)O (H-GLLKWIKTLL-NH2) as the molecule, how does the HC50 [1] read?
The HC50 was 14 µM.

And the MIC (Staphylococcus aureus [2])?
Its MIC is 62.2 µM (≈ 73.6 µg/mL).

What about the MIC (Escherichia coli [3]) of the same molecule?
Its MIC is 62.2 µM (≈ 73.6 µg/mL).

What about the MIC (Enterococcus faecium [4]) of the same molecule?
Its MIC is 9.5 µM (≈ 11.2 µg/mL).

And the MIC (Pseudomonas aeruginosa [5])?
The MIC was 28.4 µM (≈ 33.6 µg/mL).

And the MIC (Staphylococcus aureus [6])?
Its MIC is 19.6 µM (≈ 23.2 µg/mL).

And the MIC (Escherichia coli [7])?
Its MIC is 14.2 µM (≈ 16.8 µg/mL).

With CC[C@H](C)[C@H](NC(=O)[C@H](CCCNC(=N)N)NC(=O)[C@@H](CCCCN)NC(=O)[C@H](CC(C)C)NC(=O)[C@H](CC(C)C)NC(=O)CNC(=O)[C@H](CCCCn1cc(CC(NC(=O)[C@H](CC(C)C)NC(=O)[C@H](CC(C)C)NC(=O)[C@@H](NC(=O)[C@@H](CCCCN)NC(=O)[C@@H](NC(=O)[C@H](CCCNC(=N)N)NC(=O)[C@@H](CCCCN)NC(=O)[C@H](CC(C)C)NC(=O)[C@H](CC(C)C)NC(=O)CNC(C)=O)[C@@H](C)CC)[C@@H](C)O)C(N)=O)nn1)NC(C)=O)C(=O)N[C@H](CCCCN)C(=O)N[C@H](C(=O)N[C@@H](CC(C)C)C(=O)N[C@@H](CC(C)C)C(N)=O)[C@@H](C)O (some centres undefined) as the molecule, how does the MIC (Staphylococcus aureus [8]) read?
Its MIC is 128 µM (≈ 338 µg/mL).

And the MIC (Bacillus subtilis [9])?
The MIC was 2 µM (≈ 5.28 µg/mL).

What about the MIC (Escherichia coli [10]) of the same molecule?
Its MIC is 32 µM (≈ 84.5 µg/mL).

What about the MIC (Pseudomonas aeruginosa [11]) of the same molecule?
Its MIC is 16 µM (≈ 42.2 µg/mL).

And the MIC (Klebsiella pneumoniae [12])?
Its MIC is 32 µM (≈ 84.5 µg/mL).

What about the MIC (Acinetobacter baumannii [13]) of the same molecule?
The MIC was 4 µM (≈ 10.6 µg/mL).

And the MIC (Staphylococcus aureus [14])?
Its MIC is 64 µM (≈ 169 µg/mL).

What about the MIC (Staphylococcus aureus [15]) of the same molecule?
The MIC was 64 µM (≈ 169 µg/mL).

With CC[C@H](C)[C@H](NC(=O)[C@H](CCCNC(=N)N)NC(=O)[C@@H](CCCCN)NC(=O)[C@H](CC(C)C)NC(=O)[C@H](CC(C)C)NC(=O)CNC(C)=O)C(=O)N[C@H](CCCCN)C(=O)N[C@H](C(=O)N[C@@H](CC(C)C)C(=O)N[C@@H](CC(C)C)C(=O)NC(Cc1cn(CCCC[C@H](NC(=O)[C@H](CC(C)C)NC(=O)[C@H](CC(C)C)NC(=O)[C@@H](NC(=O)[C@@H](CCCCN)NC(=O)[C@@H](NC(=O)[C@H](CCCNC(=N)N)NC(=O)[C@@H](CCCCN)NC(=O)[C@H](CC(C)C)NC(=O)[C@H](CC(C)C)NC(=O)CNC(C)=O)[C@@H](C)CC)[C@@H](C)O)C(N)=O)nn1)C(N)=O)[C@@H](C)O (some centres undefined) as the molecule, how does the MIC (Staphylococcus aureus [8]) read?
The MIC was 128 µM (≈ 338 µg/mL).

What about the MIC (Bacillus subtilis [9]) of the same molecule?
The MIC was 4 µM (≈ 10.6 µg/mL).

And the MIC (Escherichia coli [10])?
Its MIC is 16 µM (≈ 42.2 µg/mL).

What about the MIC (Pseudomonas aeruginosa [11]) of the same molecule?
Its MIC is 16 µM (≈ 42.2 µg/mL).

What about the MIC (Klebsiella pneumoniae [12]) of the same molecule?
Its MIC is 64 µM (≈ 169 µg/mL).

And the MIC (Acinetobacter baumannii [13])?
Its MIC is 4 µM (≈ 10.6 µg/mL).

What about the MIC (Staphylococcus aureus [14]) of the same molecule?
Its MIC is 128 µM (≈ 338 µg/mL).

What about the MIC (Staphylococcus aureus [15]) of the same molecule?
Its MIC is 128 µM (≈ 338 µg/mL).

With CC[C@H](C)[C@@H]1NC(=O)[C@@](C)(NC(=O)[C@H](CCCCN)NC(=O)[C@H](CC(C)C)NC(=O)[C@H](CC(C)C)NC(=O)CN)CCC/C=C\CCC[C@@](C)(C(=O)N[C@@H](CC(C)C)C(N)=O)NC(=O)[C@H]([C@@H](C)O)NC(=O)[C@H](CCCCN)NC1=O (H-GLLK[S5]IKT[S5]L-NH2; staple (Z) 5-9) as the molecule, how does the MIC (Staphylococcus aureus [16]) read?
The MIC was 4 µM (≈ 4.54 µg/mL).

What about the MIC (Staphylococcus aureus [17]) of the same molecule?
The MIC was 4 µM (≈ 4.54 µg/mL).

What about the MIC (Bacillus subtilis [18]) of the same molecule?
Its MIC is 4 µM (≈ 4.54 µg/mL).

And the MIC (Escherichia coli [19])?
The MIC was 8 µM (≈ 9.08 µg/mL).

What about the MIC (Escherichia coli [20]) of the same molecule?
The MIC was 32 µM (≈ 36.3 µg/mL).

What about the MIC (Pseudomonas aeruginosa [21]) of the same molecule?
Its MIC is 16 µM (≈ 18.2 µg/mL).

What about the MIC (Pseudomonas aeruginosa [22]) of the same molecule?
The MIC was 32 µM (≈ 36.3 µg/mL).

And the MIC (Salmonella typhimurium)?
The MIC was 32 µM (≈ 36.3 µg/mL).

What about the HC10 (Erythrocyte) of the same molecule?
The HC10 was 8 µM.

What does the source list for CC[C@H](C)[C@H](NC(=O)[C@H](CCCNC(=N)N)NC(=O)[C@H](CCCCN)NC(=O)[C@H](CC(C)C)NC(=O)[C@H](CC(C)C)NC(=O)CN)C(=O)N[C@@H](CCCCN)C(=O)N[C@H](C(=O)N[C@@H](CC(C)C)C(=O)N[C@@H](C)C(N)=O)[C@@H](C)O (H-GLLKRIKTLA-NH2)?
MIC (Staphylococcus aureus [23]): 43.2 µM (≈ 48 µg/mL); MIC (Bacillus subtilis [24]): 32 µM; MIC (Enterococcus faecalis): ≥ 512 µM; MIC [25]: 64 µM; MIC (Escherichia coli [26]): 43.2 µM (≈ 48 µg/mL); MIC (Pseudomonas aeruginosa [27]): 64 µM (≈ 71.1 µg/mL); MIC (Klebsiella pneumoniae [28]): 256 µM (≈ 285 µg/mL); MIC (Acinetobacter baumannii [29]): ≥ 512 µM; HC50 [30]: ≥ 512 µM

Which HC50 [1] does the source give for CC[C@H](C)[C@H](NC(=O)[C@H](CCCCN)NC(=O)[C@H](CCCCN)NC(=O)[C@H](CC(C)C)NC(=O)[C@H](CC(C)C)NC(=O)CN)C(=O)N[C@@H](CCCCN)C(=O)N[C@H](C(=O)N[C@@H](CC(C)C)C(=O)N[C@@H](CC(C)C)C(N)=O)[C@@H](C)O here?
Its HC50 is 269 µM.

What about the MIC (Enterococcus faecium [31]) of the same molecule?
The MIC was 171 µM (≈ 192 µg/mL).

And the MIC (Pseudomonas aeruginosa [32])?
Its MIC is 56.8 µM (≈ 63.9 µg/mL).
